Data on 17 molecules can be found in patent US10208064B2, “Inhibitors of the renal outer medullary potassium channel” (MERCK SHARP & DOHME CORP., priority 2014, dated 2019).

The target of this assay is ROMK (Kir1.1) channel (Homo sapiens (Human), UniProt P48048). Put plainly: Thallium Flux Assay. The format is cell-based. The procedure: The following Thallium Flux Assay was performed on each of the final product compounds in the Examples.
A Thallium Flux Assay was performed on the compounds of the Examples. This assay has been described previously; see, e.g., PCT Published Application WO 2013/062900.

The IC50 is the concentration needed to halve the response being measured. Read a high IC50 as weaker potency in that assay.

SMILES strings stand for the structures.

Chain of ROMK (Kir1.1) channel (P48048 whole entry): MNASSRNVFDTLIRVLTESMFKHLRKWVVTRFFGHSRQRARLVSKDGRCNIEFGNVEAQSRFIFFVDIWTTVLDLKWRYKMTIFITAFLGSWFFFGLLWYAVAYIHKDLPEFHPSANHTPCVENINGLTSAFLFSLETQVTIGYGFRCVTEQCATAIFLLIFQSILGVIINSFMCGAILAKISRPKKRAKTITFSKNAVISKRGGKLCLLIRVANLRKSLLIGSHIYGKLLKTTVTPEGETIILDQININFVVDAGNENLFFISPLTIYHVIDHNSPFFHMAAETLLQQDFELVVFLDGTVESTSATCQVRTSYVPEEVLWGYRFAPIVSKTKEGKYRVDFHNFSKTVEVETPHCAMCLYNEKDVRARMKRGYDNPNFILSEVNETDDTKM

Take `C[C@@H]1CC2(CCN(C[C@@H](O)c3ccc4c(ccc5nnnn54)c3)CC2)C(=O)N1C1=CC(=O)OC1` [Example 18, (R)-8-((S)-2-hydroxy-2-(tetrazolo[1,5-a]quinolin-7-yl)ethyl)-3-methyl-2-(5-oxo-2,5-dihydrofuran-3-yl)-2,8-diazaspiro[4.5]decan-1-one]: the IC50 turned out to be 7 nM. With `C[C@H]1CC2(CCN(C[C@@H](O)c3ccc4c(ccc5nnnn54)c3)CC2)C(=O)N1C1=CC(=O)OC1` [Example 19, (S)-8-((S)-2-hydroxy-2-(tetrazolo[1,5-a]quinolin-7-yl)ethyl)-3-methyl-2-(5-oxo-2,5-dihydrofuran-3-yl)-2,8-diazaspiro[4.5]decan-1-one] the figure was 10 nM; with `CC1=C(N2CCC3(CCN(C[C@H](O)c4ccc5c(ccc6nnnn65)c4)CC3)C2=O)COC1=O` [Example 20, (R)-8-(2-hydroxy-2-(tetrazolo[1,5-a]quinolin-7-yl)ethyl)-2-(4-methyl-5-oxo-2,5-dihydrofuran-3-yl)-2,8-diazaspiro[4.5]decan-1-one], 11 nM; with `CC1=C(N2CCC3(CCN(C[C@@H](O)c4ccc5c(ccc6nnnn65)c4)CC3)C2=O)COC1=O` [Example 21, (S)-8-(2-hydroxy-2-(tetrazolo[1,5-a]quinolin-7-yl)ethyl)-2-(4-methyl-5-oxo-2,5-dihydrofuran-3-yl)-2,8-diazaspiro[4.5]decan-1-one], 19 nM. With `CC1=C(N2CCC3(CCN(C[C@@H](O)c4ccc5c(ccc6nnnn65)n4)CC3)C2=O)COC1=O` [Example 22, (R)-8-(2-hydroxy-2-(tetrazolo[1,5-a][1,5]naphthyridin-7-yl)ethyl)-2-(4-methyl-5-oxo-2,5-dihydrofuran-3-yl)-2,8-diazaspiro[4.5]decan-1-one] the figure was 185 nM; with `CC1=C(N2CCC3(CCN(C[C@H](O)c4ccc5c(c4C)Cn4nnnc4-5)CC3)C2=O)COC1=O` [Example 23, (R)-8-(2-hydroxy-2-(6-methyl-5H-tetrazolo[5,1-a]isoindol-7-yl)ethyl)-2-(4-methyl-5-oxo-2,5-dihydrofuran-3-yl)-2,8-diazaspiro[4.5]decan-1-one], 17 nM; with `CC1=C(N2CCC3(CCN(C[C@@H](O)c4ccc5c(c4C)Cn4nnnc4-5)CC3)C2=O)COC1=O` [Example 24, (S)-8-(2-hydroxy-2-(6-methyl-5H-tetrazolo[5,1-a]isoindol-7-yl)ethyl)-2-(4-methyl-5-oxo-2,5-dihydrofuran-3-yl)-2,8-diazaspiro[4.5]decan-1-one], 16 nM. The same measure for `CC1=C(N2CCC3(CCN(C[C@H](O)c4cc5c(cc4C4CC4)-c4nnnn4C5)CC3)C2=O)COC1=O` [Example 25, (R)-8-(2-(8-cyclopropyl-5H-tetrazolo[5,1-a]isoindol-7-yl)-2-hydroxyethyl)-2-(4-methyl-5-oxo-2,5-dihydrofuran-3-yl)-2,8-diazaspiro[4.5]decan-1-one]: 128 nM; for `CC1=C(N2CCC3(CCN(C[C@@H](O)c4cc5c(cc4C4CC4)-c4nnnn4C5)CC3)C2=O)COC1=O` [Example 26, (S)-8-(2-(8-cyclopropyl-5H-tetrazolo[5,1-a]isoindol-7-yl)-2-hydroxyethyl)-2-(4-methyl-5-oxo-2,5-dihydrofuran-3-yl)-2,8-diazaspiro[4.5]decan-1-one]: 82 nM; for `CC1=C(N2CCC3(CCN(CC(O)c4ccc5c(c4)[C@H](C)n4nnnc4-5)CC3)C2=O)COC1=O` (stereo partly drawn) [Example 27A, 8-(2-hydroxy-2-((S)-5-methyl-5H-tetrazolo[5,1-α]isoindol-7-yl)ethyl)-2-(4-methyl-5-oxo-2,5-dihydrofuran-3-yl)-2,8-diazaspiro[4.5]decan-1-one]: 87 nM. Regarding `CC1=C(N2CCC3(CCN(CC(O)c4ccc5c(c4)[C@@H](C)n4nnnc4-5)CC3)C2=O)COC1=O` (stereo partly drawn) [Example 27B, 8-(2-hydroxy-2-((R)-5-methyl-5H-tetrazolo[5,1-α]isoindol-7-yl)ethyl)-2-(4-methyl-5-oxo-2,5-dihydrofuran-3-yl)-2,8-diazaspiro[4.5]decan-1-one], inhibition was half-maximal at 27 nM (IC50). With `CC1=C(N2CCC3(CCN(C[C@H](O)c4ccc5c(c4)[C@@H](C)n4nnnc4-5)CC3)C2=O)COC1=O` [Example 27C, 8-((R)-2-hydroxy-2-((R)-5-methyl-5H-tetrazolo[5,1-a]isoindol-7-yl)ethyl)-2-(4-methyl-5-oxo-2,5-dihydrofuran-3-yl)-2,8-diazaspiro[4.5]decan-1-one] the figure was 36 nM; with `CC1=C(N2CCC3(CCN(C[C@@H](O)c4ccc5c(c4)[C@@H](C)n4nnnc4-5)CC3)C2=O)COC1=O` [Example 27D, 8-((S)-2-hydroxy-2-((R)-5-methyl-5H-tetrazolo[5,1-a]isoindol-7-yl)ethyl)-2-(4-methyl-5-oxo-2,5-dihydrofuran-3-yl)-2,8-diazaspiro[4.5]decan-1-one], 29 nM; with `CC1=C(N2CCC3(CCN([C@H](CO)c4ccc5c(ccc6nnnn65)c4)CC3)C2=O)COC1=O` [Example 28A, (S)-8-(2-hydroxy-1-(tetrazolo[1,5-a]quinolin-7-yl)ethyl)-2-(4-methyl-5-oxo-2,5-dihydrofuran-3-yl)-2,8-diazaspiro[4.5]decan-1-one], 44 nM. With `CC1=C(N2CCC3(CCN(C(CO)c4ccc5c(c4)CCc4nnnn4-5)CC3)C2=O)COC1=O` (centres unmarked) [Example 29, 8-(1-(4,5-dihydrotetrazolo[1,5-a]quinolin-7-yl)-2-hydroxyethyl)-2-(4-methyl-5-oxo-2,5-dihydrofuran-3-yl)-2,8-diazaspiro[4.5]decan-1-one] the figure was 421 nM; with `CC1=C(N2CCC3(CCN(CCc4ccc5c(c4)Cn4nnnc4-5)CC3)C2=O)COC1=O` [Example 30, 8-(2-(5H-tetrazolo[5,1-a]isoindol-7-yl)ethyl)-2-(4-methyl-5-oxo-2,5-dihydrofuran-3-yl)-2,8-diazaspiro[4.5]decan-1-one], 6 nM. The same measure for `CO[C@@H](CN1CCC2(CC1)CCN(C1=C(C)C(=O)OC1)C2=O)c1ccc2c(c1)Cn1nnnc1-2` [Example 31, (R)-8-(2-methoxy-2-(5H-tetrazolo[5,1-a]isoindol-7-yl)ethyl)-2-(4-methyl-5-oxo-2,5-dihydrofuran-3-yl)-2,8-diazaspiro[4.5]decan-1-one]: 239 nM.
